Experimental data published in article PMC10901097, “Vanillin derivatives as antiamnesic agents in scopolamine-induced memory impairment in mice” (Heliyon, 2024).
Entries after “also recorded” stand apart in the source; their conditions may differ.

Legend:
[1] = DPPH free radical scavenging assay; conditions: triplicate (n = 3); 517 nm, 15 min
Method: A slightly modified DPPH assay as described by Brand William was followed. Initially, the absorbance of 3 mL from stock DPPH (20 mg/100 mL of methanol) was adjusted to 0.75 at 517 nm. The DPPH stock solution was covered and kept in the dark overnight to generate free radicals. About 2 mL of each dilution of different ranges (0.1–3.5 μM) was prepared from SB1– SB6 stock (5 mg/5 mL of methanol) were mixed with 2 mL of pre-incubated DPPH stock solution and incubated for 15 min at room temperature. Ascorbic acid was used as a standard. The absorbance of the reaction mixtures was recorded at 517 nm and the % inhibition was calculated by Equation (1):[1] %inhibition=A−B/A×100
where A = absorbance of pure DPPH in oxidized form, B = absorbance of the sample, which
Was measured after 15 min of reaction with DPPH.

[2] = ABTS free radical scavenging assay; conditions: triplicate (n = 3); 745 nm, 15 min
Method: The antioxidant potential of the synthesized compounds were also determined using ABTS free radical following a reported standard protocol. ABTS (7 mM) and K2S2O8 (2.45 mM) were mixed (in methanol) and put in the dark for 24 h for free radicals’ formation, which was then used as stock solution. The absorbance of 3 mL from the stock ABTS was adjusted to 0.75 at 745 nm, which was considered a control. About 300 μl of each of the serial dilutions (0.1–3.5 μM) of SB1– SB6 and 3 mL of stock ABTS were mixed and incubated for 15 min at 25 °C, and their absorbance was measured at 745 nm. Ascorbic acid was used as a control. The scavenging activity was calculated by Equation (1).

[3] = tested on: scopolamine-induced memory impairment in mice; test: Y-maze spontaneous alternation, scopolamine-induced amnesia; type: in vivo, Albino mice; conditions: for effect on spontaneous alternation / short-term memory retention in Y-Maze (significance): 50 and 100 mg/kg b.w, compared with scopolamine-injected group
Method: (§1) Albino mice (20–23 g b. w.) were brought from National Institute of Health, Islamabad, Pakistan, and the mice were retained in animal house at University of Malakand at Department of Pharmacy for acclimation. Normal pellet diet and water were provided to all the animals and were kept for 12 h of light-dark cycle under normal laboratory conditions (temperature in a range of 25 ± 2 °C, humidity of 56–66%). All protocols employed were approved from the Ethical Committee vide notification Pharm/EC-QRE/10–31/25 as per approved “Animal Bye-Laws 2008, Scientific Procedures Issue-I of the Malakand University” and the UK animal scientific procedure act (1986).
After acclimatization, the animals were grouped into different groups consisting of 6 animals each. […] It also can induce amyloid β deposition, oxidative stress, synaptic dysfunction, and learning/memory impairment in experimental animals. Group II received scopolamine along with galantamine as standard. […] The treatment was carried out continuously for 7 days and after treatment schedule, the animals were subjected to behavioural study using Y-maze and NORT.
To assess the short-term memory (amnesic) effect, the exploratory activity of mice were investigated using Y- maze apparatus. At a time, a single mouse was placed at Y-shaped maize and allowed to move freely for 5-min session and alterations were recorded as shown in Fig. 2. The percentage alternations were calculated as per reported protocol and mathematically as given in equation (2).[2] %Alternation=Spontaneousalternation/Totalnumberofarmentries−2×100
Fig. 2 (A). Schematic drawings of the Y-maze and the experimental procedures. The sample trial and test trials were conducted for 5 min at a 30 min interval. (B) The Y-Maze test diagrammatic figure. (a) The mouse was positioned in the middle of the fixed arm and faced the maze's centre during the test. (b) A mouse was considered to have entered an arm when all four of its paws passed the threshold inside the arm and the mouse's snout was pointed in the direction of the end of the arm. (C). Alternations consist of single, uninterrupted entries into each arm of the y-maze. There are three steps involved in each alternation. The steps of alternation are shown in (a) the first entrance into the arm 1; (b) the second entry into the arm 3; and (c) the third entry into the arm 2 [41, 42].

[4] = tested on: scopolamine-induced memory impairment in mice; test: Novel object recognition test (NORT), scopolamine-induced amnesia; type: in vivo, Albino mice; conditions: for effect on time spent with the new object N (exploration time) in NOR test: 50 and 100 mg/kg b.w (galantamine: standard), compared with scopolamine group; for effect on discrimination index in NOR test: 50 mg/kg and 100 mg/kg b.w, compared with scopolamine group / galantamine; for effect on latency time to discover familiar object (F) in NOR test: 50 and 100 mg/kg b.w, compared with scopolamine-injected group
Method: as §1
After acclimatization, the animals were grouped into different groups consisting of 6 animals each. […] It also can induce amyloid β deposition, oxidative stress, synaptic dysfunction, and learning/memory impairment in experimental animals. […] The treatment was carried out continuously for 7 days and after treatment schedule, the animals were subjected to behavioural study using Y-maze and NORT.
NORT was used to assess the effect of vanillin derivatives on memory in mice model. The apparatus employed in this test measures 40 cm wide, 40 cm long, and 66 cm tall. NORT entails a two-day habituation period, followed by a two-day training session and finally a testing or experimental period. During habituation, an empty box was used, two identical objects were placed in two corners of the box during training, and one unique object was replaced during testing as shown in Fig. 3. To test long-term memory in mice, a five-day washout period was provided before the NORT. The time spent in each phase was manually documented using a stopwatch.
Fig. 3 Procedures for novel object recognition (NORT). The three phases of the test are shown. In NORT, object identity is changed between training and test; object location is remained unchanged.

[5] = molecular target: T1, acetylcholinesterase (EC 3.1.1.7) (Homo sapiens, UniProt P22303); test: biochemical; conditions: triplicate (n = 3); 405 nm; read-out: IC50 (μM) AChE
T1 construct: purchased local market (no vendor named)
T1 sequence (P22303 32-614, species assumed): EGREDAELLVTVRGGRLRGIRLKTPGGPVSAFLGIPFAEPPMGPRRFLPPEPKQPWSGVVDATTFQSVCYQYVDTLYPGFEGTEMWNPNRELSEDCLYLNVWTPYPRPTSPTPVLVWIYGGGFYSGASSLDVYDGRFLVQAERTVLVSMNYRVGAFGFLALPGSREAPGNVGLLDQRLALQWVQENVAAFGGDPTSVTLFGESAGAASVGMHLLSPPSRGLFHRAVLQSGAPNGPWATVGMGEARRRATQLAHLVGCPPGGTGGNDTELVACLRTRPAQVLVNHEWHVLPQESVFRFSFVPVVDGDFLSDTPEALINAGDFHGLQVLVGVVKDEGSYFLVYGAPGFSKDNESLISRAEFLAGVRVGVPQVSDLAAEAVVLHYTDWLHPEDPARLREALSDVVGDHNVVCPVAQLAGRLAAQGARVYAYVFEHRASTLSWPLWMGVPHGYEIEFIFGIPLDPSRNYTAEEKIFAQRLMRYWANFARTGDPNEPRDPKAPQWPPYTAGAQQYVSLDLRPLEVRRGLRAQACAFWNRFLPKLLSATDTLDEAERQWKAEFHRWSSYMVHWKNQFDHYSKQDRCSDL
Text: (§2) To evaluate the therapeutic effectiveness of the compounds as inhibitors of cholinesterases, the reported procedures were followed (Elman's protocol). Enzymes acetylcholinesterase (EC 3.1.1.7) and butyrylcholinesterase (EC 3.1.1.8) were purchased from local market.
The acetylcholinesterase inhibition assay is based on the principle of the hydrolytic breakdown of substrate; acetylthiocholine iodide by acetylcholinesterase enzyme. The AChE acts on acetylthiocholine to thiocholine which then react with DTNB that's leads towards the formations of anion (5-thio-2-nitrobenzoate) a yellow colour product which is then assessed via UV visible spectrophotometer at 405 nm.
The AChE, Ellman's Reagent (DTNB) and acetylthiocholine iodide (ATChI, substrate), and the test compound solutions were made in different concentrations ranges from (0.01–1.0 μM) were incubated per detail given in the Ellman's protocol. […] IC50 of each Schiff bases were calculated using Microsoft Excel 2013 software.

[6] = molecular target: T2, butyrylcholinesterase (EC 3.1.1.8) (Homo sapiens, UniProt P06276); test: In-vitro BChE inhibitory assay (Ellman's protocol); type: biochemical; conditions: triplicate (n = 3); 405 nm
T2 construct: purchased local market (no vendor named)
T2 sequence (P06276 29-602): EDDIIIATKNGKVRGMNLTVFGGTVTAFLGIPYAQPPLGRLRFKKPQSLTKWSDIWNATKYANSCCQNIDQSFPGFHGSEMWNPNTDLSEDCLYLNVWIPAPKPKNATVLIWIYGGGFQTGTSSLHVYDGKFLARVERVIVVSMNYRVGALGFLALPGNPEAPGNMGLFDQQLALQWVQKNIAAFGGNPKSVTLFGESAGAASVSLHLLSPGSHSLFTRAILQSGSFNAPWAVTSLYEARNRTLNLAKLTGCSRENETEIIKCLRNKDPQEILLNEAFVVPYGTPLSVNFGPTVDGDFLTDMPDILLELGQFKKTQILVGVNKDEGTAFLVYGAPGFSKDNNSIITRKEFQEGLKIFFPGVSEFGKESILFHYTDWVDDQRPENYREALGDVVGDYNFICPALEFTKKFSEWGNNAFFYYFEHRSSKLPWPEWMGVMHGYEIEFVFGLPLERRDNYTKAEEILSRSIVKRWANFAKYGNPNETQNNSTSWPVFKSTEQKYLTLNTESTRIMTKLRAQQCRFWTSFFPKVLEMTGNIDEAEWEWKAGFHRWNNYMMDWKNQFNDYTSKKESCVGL
Method: as §2
The absorbance at 405 nm was measured and the data were analysed in triplicate.

[7] = 50 mg/kg b.w (lower test dose), 7 days, with scopolamine 2 mg/kg i.p., mean ± SEM, n = 6

SMILES: O=C1O[C@H]([C@@H](O)CO)C(O)=C1O [Ascorbic acid, reference compound]
- IC50 [1]: 0.074 µM
- IC50 [2]: 0.073 µM

SMILES: COc1ccc2c3c1O[C@H]1C[C@@H](O)C=C[C@@]31CCN(C)C2 [Galantamine, reference compound]
- spontaneous alternation rate in Y-Maze ([3]; standard group: galantamine with scopolamine, P < 0.001 vs scopolamine-treated group): more than 80%
- effect on time spent with the new object N (exploration time) in NOR test [4]: significant increase

SMILES: COc1cc(/C=N/c2ccccc2C(F)(F)F)ccc1O [SB-1, (E)-2-methoxy-4-(((2-(trifluoromethyl)phenyl)imino)methyl)phenol]
- IC50 [5]: 0.078 µM
- IC50 [6]: 0.265 µM
- IC50 [1]: 0.588 µM
- IC50 [2]: 0.208 µM
- spontaneous alternation rate in Y-Maze [3, 7]: 69.44 ± 1%
- effect on spontaneous alternation / short-term memory retention in Y-Maze (significance) [3]: significantly improved
- effect on discrimination index in NOR test [4]: most prominent activity; also recorded: more pronounced as compared to standard drug
- effect on time spent with the new object N (exploration time) in NOR test [4]: significant increase
- effect on latency time to discover familiar object (F) in NOR test [4]: decreased the latency time significantly

SMILES: COc1ccc(/C=N/c2ccccc2C(F)(F)F)cc1O [SB-2, (E)-2-methoxy-5-(((2-(trifluoromethyl)phenyl)imino)methyl)phenol]
- IC50 [5]: 0.61 µM
- IC50 [6]: 0.188 µM
- IC50 [1]: 0.447 µM
- IC50 [2]: 0.401 µM
- effect on spontaneous alternation / short-term memory retention in Y-Maze (significance) [3]: no significant effect
- effect on discrimination index in NOR test [4]: insignificant activity
- effect on time spent with the new object N (exploration time) in NOR test [4]: insignificant activity
- effect on latency time to discover familiar object (F) in NOR test [4]: insignificant
- changes in the memory and cognition of mice (NORT) ([4]; mouse, in vivo): did not cause any changes

SMILES: Oc1ccc(/C=N/c2ccccc2C(F)(F)F)cc1 [SB-3, (E)-4-(((2-(trifluoromethyl)phenyl)imino)methyl)phenol]
- IC50 [5]: 0.157 µM
- IC50 [6]: 0.057 µM
- IC50 [1]: 0.305 µM
- IC50 [2]: 0.118 µM
- spontaneous alternation rate in Y-Maze [3, 7]: 68.92 ± 1%
- effect on spontaneous alternation / short-term memory retention in Y-Maze (significance) [3]: significantly improved
- effect on discrimination index in NOR test [4]: most prominent activity
- effect on time spent with the new object N (exploration time) in NOR test [4]: significant increase
- effect on latency time to discover familiar object (F) in NOR test [4]: decreased the latency time significantly

SMILES: Cc1ccc(/N=C/c2ccc(O)cc2)c(Cl)c1 [SB-4, (E)-4-(((2-chloro-4-methylphenyl)imino)methyl)phenol]
- IC50 [5]: 0.108 µM
- IC50 [6]: 0.367 µM
- IC50 [1]: 0.804 µM
- IC50 [2]: 0.969 µM
- effect on discrimination index in NOR test [4]: most prominent activity
- effect on time spent with the new object N (exploration time) in NOR test [4]: significant increase
- effect on latency time to discover familiar object (F) in NOR test [4]: decreased the latency time significantly

SMILES: Cc1ccc(/N=C/c2ccccc2Br)c(Cl)c1 [SB-5, (E)-N-(2-bromobenzylidene)-2-chloro-4-methylaniline]
- IC50 [5]: 0.442 µM
- IC50 [6]: 0.186 µM
- IC50 [1]: 0.72 µM
- IC50 [2]: 0.19 µM
- effect on discrimination index in NOR test [4]: insignificant activity
- effect on time spent with the new object N (exploration time) in NOR test [4]: insignificant activity
- effect on latency time to discover familiar object (F) in NOR test [4]: significant decrease

SMILES: Cc1ccc(/N=C/c2ccc[nH]2)c(Cl)c1 [SB-6, (E)-N-((1H-pyrrol-2-yl)methylene)-2-chloro-4-methylaniline]
- IC50 [6]: 0.117 µM
- IC50 [1]: 2.8 µM
- IC50 [2]: 3.3 µM
- effect on time spent with the new object N (exploration time) in NOR test [4]: slight activity
- effect on latency time to discover familiar object (F) in NOR test [4]: decreased the latency time significantly

SMILES: CN1[C@@H]2C[C@@H](OC(=O)[C@H](CO)c3ccccc3)C[C@H]1[C@@H]1O[C@@H]12 [Scopolamine]
- spontaneous alternation rate in Y-Maze ([3]; scopolamine-treated group, 2 mg/kg i.p. alone, n = 6): 38.16%
